Test results as given in patent US9211252B2, “Increased drug loading capacity of polymeric material” (Medtronic, Inc., priority 2007, dated 2015).
“Also recorded” adds a separate entry of the source. Read-outs that look alike come from different tables or passages of the source.

How the values were obtained:
[1] = Solvent swelling of silicone boots; format: physicochemical; details: silicone boots placed in solvent for 2 hours; solvent ratios by volume
Procedure: The effect of various solvents to swell (as determined by % weight increase) silicone boots was determined. Silicone boots were weighed, placed in a solvent for 2 hours, and weighed again.
The solvent ratios in Table 1 are by volume. The ability to swell silicone by 30% or more is believed to be suitable for increasing the loading capacity of silicone. The ability to swell silicone by 50% or more is believed to be more suitable for increasing the loading capacity of silicone.

[2] = for increase in drug loading, pre-extracted relative to non-extracted silicone discs: 2 hour plus 24 hour extracted; for average drug loaded into silicone discs: 24 hr loading, HPLC of 25 mL extract
Procedure: One sheet was removed after 2 hours; the other was removed after 24. The sheets were allowed to dry for 24 hours.
Nine 1¼ inch discs were punched from each sheet of silicone. The discs (27) were separated into 9 jars (3 per jar). Each jar contained a drug loading solution. Three jars contained clonidine, three contained dexamethasone and three contained sulindac.
After stirring 24 hrs in solution, all the samples were removed, rinsed twice for approximately 10 seconds in a sufficient volume of methanol and allowed to dry overnight in open air on a drying rack. The samples were then stored until extraction in jars in a nitrogen purged foil bag.
Each sample was cut in half, and the half sample was weighed. Initially only the clonidine and sulindac samples were analyzed.
All samples were extracted in THF/ethanol 4:1 (15 mL) for 30 min; then re-extracted in THF/ethanol 4:1 (10 mL) for 20 min. The first and second extracts were combined in a volumetric flask and any additional volume was added to make exactly 25 mL of solution. These samples were stored in at 4° C. until analysis.
HPLC Analysis was performed using an Agilent 1100 stack. For dexamethasone, isocratic separation using acetonytrile:water (45:55) was performed. A Zorbax SB-Phenyl, 5 μm, 4.6×150 mm, column (Agilent Technologies, Inc.) was used at a column temperature of 30° C. The flow rate was 10 mL/min, with a run time of 15 minutes. Dexamethasone was detected by UV at 245 nm.
For sulindac, isocratic separation using 0.1% phosphoric acid in acetonitrile:water (38:62) was performed. A PRONTOSIL 120-5-C18-ace-EPS, 5 μm, 4.6×150 mm, column was used at a column temperature of 37° C. The autosampler temperature was 15° C. The flow rate was 1.0 mL/min, with a run time of 35 min. Sulindac was detected by UV at 285 nm. Injection volumes were 10-50 μL.
The autosample temperature was ambient temperature. Isocratic separation using a mobile phase A (MPA):mobile phase B (MPB) ratio of 52:48 was employed. MPA consisted of 2.2 gm 1-octanesulfonic acid, sodium salt for each liter of nanopure water. MPB was HPLC Grade Methanol. The flow rate was 1 mL/min, with a run time of 15 minutes. […] The injection volume was 10 μL

[3] = Solubility of drug in the loading solution; format: physicochemical; details: methanol/butyl acetate loading solution, extra 5 mL methanol added
[4] = Loading of minocycline and rifampin into pre-extracted and non-extracted silicone boots; format: physicochemical; details: for drug concentration in polymer: loading 1 hour in butyl acetate:methanol 85:15
Procedure: Molded, cured silicone (Dow-Q7 4850) boots designed to fit snuggly around Restore® implantable neurostimulators (Medtroinc, Inc.) were placed in a concentrated drug loading solution containing rifampin (30 mg/ml) and minocycline (15 mg/ml) in butyl acetate:methanol (85:15, by volume). The polymer was allowed to swell in this solution for one hour, rinsed and then dried overnight.
The efficiency of various solvents to extract material from cured silicone was tracked by determining the weight loss post-extraction. […] It was initially assumed that subjecting the polymer to drug loading should fulfill the same function as pre-extracting the material prior to drug loading.
One thought was that the existence of extractables in the loading solution might increase the solubility of the drugs in solution compared to solubility in the silicone, thus lowering the partitioning of drug into the silicone. Eight non-extracted silicone boots and 10 pre-extracted boots were drug loaded in separate loading solutions. Two additional pre-extracted silicone boots were then loaded in the formulation used to load the non-extracted boots. According to the hypothesis, the loading solution used for the non-extracted boots would theoretically contain higher levels of silicone extractables, and result in lower loading of the pre-extracted boots.

[5] = not pre-extracted with butyl acetate
[6] = pre-extracted with butyl acetate for 2 hours
[7] = pre-extracted with butyl acetate for 24 hours

SMILES: CC(C)=O [Acetone]
- % Weight Increase [1]: 15%

SMILES: CCCCOC(C)=O [Butyl Acetate]
- % Weight Increase [1]: 73%

SMILES: ClC(Cl)Cl [Chloroform]
- % Weight Increase [1]: 166%

SMILES: C1CCCCC1 [Cyclohexane]
- % Weight Increase [1]: 85%

SMILES: C1CCCC1 [Cyclopentane]
- % Weight Increase [1]: 62%

SMILES: CCOC(C)=O [Ethyl acetate]
- % Weight Increase [1]: 54%

SMILES: CC(C)O [Isopropyl alcohol]
- % Weight Increase [1]: 13%

SMILES: C1CCOC1 [THF]
- % Weight Increase [1]: 105%

SMILES: Cc1ccccc1 [Toluene]
- % Weight Increase [1]: 85%

SMILES: Clc1cccc(Cl)c1N=C1NCCN1 [clonidine]
- increase in drug loading, pre-extracted relative to non-extracted silicone discs [2]: ~6%
- average drug loaded into silicone discs [2, 5]: 19.41 ± 0.20 µg/mL
- average drug loaded into silicone discs [2, 6]: 20.59 ± 0.20 µg/mL
- average drug loaded into silicone discs [2, 7]: 20.49 ± 0.22 µg/mL

SMILES: C[C@@H]1C[C@H]2[C@@H]3CCC4=CC(=O)C=C[C@]4(C)[C@@]3(F)[C@@H](O)C[C@]2(C)[C@@]1(O)C(=O)CO [dexamethasone]
- solubility in loading solution [3]: substantial insolubility; also recorded: did not seem to dissolve well

SMILES: CO[C@H]1/C=C/O[C@@]2(C)Oc3c(C)c(O)c4c(O)c(c(/C=N/N5CCN(C)CC5)c(O)c4c3C2=O)NC(=O)/C(C)=C\C=C\[C@H](C)[C@H](O)[C@@H](C)[C@@H](O)[C@@H](C)[C@H](OC(C)=O)[C@@H]1C [rifampin]
- drug concentration in polymer ([4]; non-extracted silicone boots): 2.61 mg/g
- drug concentration in polymer ([4]; silicone boots pre-extracted with butyl acetate): 3.28 mg/g
- increase in drug concentration, pre-extracted vs non-extracted ([4]; silicone boots, same lot): 25.7%

SMILES: CC1=C(CC(=O)O)c2cc(F)ccc2/C1=C\c1ccc([S+](C)[O-])cc1 (stereo not drawn) [sulindac]
- increase in drug loading, pre-extracted relative to non-extracted silicone discs [2]: ~19%
- average drug loaded into silicone discs [2, 5]: 1.56 ± 0.03 µg/mL
- average drug loaded into silicone discs [2, 6]: 1.86 ± 0.06 µg/mL
- average drug loaded into silicone discs [2, 7]: 1.88 ± 0.11 µg/mL
